This passage reports Ki results from ChEMBL document CHEMBL1133354, “5-Thienyltryptamine derivatives as serotonin 5-HT1B/1D receptor agonists: potential treatments for migraine” (Bioorg Med Chem Lett, 2000).

As a reminder, the Ki is a dissociation constant, usually derived from enzyme kinetics or from competition with a known ligand. A low value points to tighter binding.

The target in test [1] is 5-hydroxytryptamine receptor 1B (Homo sapiens, UniProt P28222). In words: Binding affinity for human 5-hydroxytryptamine 1B receptor.
Chain of 5-hydroxytryptamine receptor 1B (P28222 whole entry): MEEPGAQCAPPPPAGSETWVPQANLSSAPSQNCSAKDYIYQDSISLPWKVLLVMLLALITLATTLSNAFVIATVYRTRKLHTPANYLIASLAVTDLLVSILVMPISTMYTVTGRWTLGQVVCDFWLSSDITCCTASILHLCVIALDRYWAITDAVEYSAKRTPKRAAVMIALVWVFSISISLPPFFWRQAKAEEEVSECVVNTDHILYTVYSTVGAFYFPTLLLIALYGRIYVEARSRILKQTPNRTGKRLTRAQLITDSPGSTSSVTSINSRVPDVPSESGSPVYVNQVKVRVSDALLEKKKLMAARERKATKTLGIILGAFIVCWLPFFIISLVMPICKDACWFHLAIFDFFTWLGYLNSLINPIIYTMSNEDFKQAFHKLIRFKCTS
Test [2] has as its target 5-hydroxytryptamine receptor 1D (Homo sapiens, UniProt P28221). In words: Binding affinity for human 5-hydroxytryptamine 1D receptor.

Chain of 5-hydroxytryptamine receptor 1D (P28221 whole entry): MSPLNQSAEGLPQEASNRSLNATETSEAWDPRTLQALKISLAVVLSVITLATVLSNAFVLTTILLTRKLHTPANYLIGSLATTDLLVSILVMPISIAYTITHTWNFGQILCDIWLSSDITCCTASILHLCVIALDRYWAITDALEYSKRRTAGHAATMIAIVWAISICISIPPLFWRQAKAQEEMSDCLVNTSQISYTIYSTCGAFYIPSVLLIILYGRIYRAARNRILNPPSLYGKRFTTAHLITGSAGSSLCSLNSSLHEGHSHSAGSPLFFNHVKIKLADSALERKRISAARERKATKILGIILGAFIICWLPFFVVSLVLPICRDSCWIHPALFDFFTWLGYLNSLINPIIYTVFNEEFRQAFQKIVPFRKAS

Take `CN(C)CCc1c[nH]c2ccc(-c3cccs3)cc12`: the Ki in test [1] is 23 nM; in test [2] it was 0.7 nM.
On to `CC1CCC(C)N1CCc1c[nH]c2ccc(-c3cccs3)cc12` (configuration not stated), for which the results for the Ki in test [1] and in test [2] were 70 nM and 2.5 nM, respectively.
`NCCc1c[nH]c2ccc(-c3cccs3)cc12`: the Ki in test [1] came out at 32 nM; in test [2] it was 1.7 nM.
Consider `C1=CCN(CCc2c[nH]c3ccc(-c4cccs4)cc23)C1`, for which the Ki came out at 107 nM in test [1] and 4.5 nM in test [2].
As for `OC[C@@H]1CCCN1CCc1c[nH]c2ccc(-c3cccs3)cc12`, the Ki in test [1] turned out to be 113 nM; in test [2] it was 8.2 nM.
As for `c1csc(-c2ccc3[nH]cc(CCN4CCCC4)c3c2)c1`, the Ki in test [1] worked out at 714 nM; in test [2], 19 nM.
Take `CN(C)CCc1c[nH]c2ccc(-c3ccsc3)cc12`: the Ki in test [1] amounted to 17 nM; in test [2] it was 0.5 nM.
`Cc1ccc(-c2ccc3[nH]cc(CCN(C)C)c3c2)s1`: the Ki in test [1] came to 133 nM; in test [2], 3.2 nM.
Taken in the same sequence, the figures for `COC[C@@H]1CCCN1CCc1c[nH]c2ccc(-c3cccs3)cc12` were 9.9 nM and 1.8 nM.
`CN(C)CCc1c[nH]c2ccc(-c3ccc(Cl)s3)cc12`: the Ki in test [1] worked out at 303 nM; in test [2], 7.6 nM.
Take `Clc1ccc(-c2ccc3[nH]cc(CCN4CCCC4)c3c2)s1`: the values for the Ki in test [1] and in test [2] were 476 nM and 31 nM, respectively.
